From patent US12012417B2, “N-substituted tetrahydrothienopyridine derivatives and uses thereof” (NOVARTIS AG, priority 2018, dated 2024)
Where a name gives a salt, the structure may show the parent alone.

Tests used:
[1] = system: Dengue 1 virus MY97-10245; test: High-content imaging cell-based flavivirus immunodetection (HCl-CFI) assay, Dengue 1; details: Dengue virus, A549, 48 h, read-out: Dengue 1 virus MY97-10245 in A549 using HCl [Inhibitor/IC50] Qualified AC50
[2] = system: Dengue 3 virus MY05-34640-WT-C6/36; test: High-content imaging cell-based flavivirus immunodetection (HCl-CFI) assay, Dengue 3; details: Dengue virus, A549, 48 h, read-out: Dengue 3 virus MY05-34640-WT-C6/36 in A549 using HCl [Inhibitor/IC50] Qualified AC50
[3] = system: Dengue 4 virus MY01-22713; test: High-content imaging cell-based flavivirus immunodetection (HCl-CFI) assay, Dengue 4; details: Dengue virus, A549, 48 h, read-out: Dengue 4 virus MY01-22713 in A549 using HCl [Inhibitor/IC50] Qualified AC50, A549 cells, 48 h, viral E protein expression
[4] = system: Dengue 2 virus MY97-10340; test: High-content imaging cell-based flavivirus immunodetection (HCl-CFI) assay, Dengue 2; details: Dengue virus, A549, 48 h, read-out: Dengue 2 virus MY97-10340 in A549 using HCl [Inhibitor/IC50] Qualified AC50, A549 cells, MOI 0.3, 48 h, viral E protein expression
Method in brief: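 A549 cells infected at MOI 0.3, treated with 3-fold, 10-point compound dilutions for 48 h. After paraformaldehyde fixation, viral E protein immunostained with 4G2 antibody and nuclei counterstained; imaged by high-content imaging. EC50 = concentration reducing E protein expression by 50%, from dose-response curves.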

For `N#Cc1c(NC(=O)Cc2ccc(S(N)(=O)=O)cc2)sc2c1CCN(Cc1cccc(F)c1F)C2` [Example 106, N-(3-cyano-6-(2,3-difluorobenzyl)-4,5,6,7-tetrahydrothieno[2,3-c]pyridin-2-yl)-2-(4-sulfamoylphenyl)acetamide], the EC50 [1] was 100 to 1000 nM, the EC50 [2] was < 100 nM and the EC50 [3] was < 100 nM. The EC50 [4] was < 100 nM.
`COc1cc(S(N)(=O)=O)ccc1CC(=O)Nc1sc2c(c1C#N)CN(CC1CCCCC1)CC2` [Example 19, N-(3-cyano-5-(cyclohexylmethyl)-4,5,6,7-tetrahydrothieno[3,2-c]pyridin-2-yl)-2-(2-methoxy-4-sulfamoylphenyl)acetamide] was tested, and the EC50 [1] was < 100 nM, the EC50 [2] was < 100 nM and the EC50 [3] was < 100 nM. For the same compound, the EC50 [4] was < 100 nM.
In the case of `CC1Cc2sc(NC(=O)Cc3ccc(C(N)=O)cc3)c(C#N)c2CN1Cc1cccc(F)c1` (centres unmarked) [Example 58, 4-(2-((3-cyano-5-(3-fluorobenzyl)-6-methyl-4,5,6,7-tetrahydrothieno[3,2-c]pyridin-2-yl)amino)-2-oxoethyl)benzamide], the EC50 [1] is reported as 100 to 1000 nM, the EC50 [2] is reported as < 100 nM and the EC50 [3] is reported as < 100 nM. For the same compound, the EC50 [4] was < 100 nM.
With `CCOc1cc(CC(=O)Nc2sc3c(c2C#N)CN(Cc2cccc(F)c2)CC3)ccc1C(N)=O` [Example 89, 4-(2-((3-cyano-5-(3-fluorobenzyl)-4,5,6,7-tetrahydrothieno[3,2-c]pyridin-2-yl)amino)-2-oxoethyl)-2-ethoxybenzamide] the EC50 [1] was 100 to 1000 nM, the EC50 [2] was 100 to 1000 nM and the EC50 [3] was 100 to 1000 nM. It also gave an EC50 [4] of 100 to 1000 nM.
With `COc1cc(CC(=O)Nc2sc3c(c2C#N)CN(CC2CC(F)(F)C2)CC3)ccc1S(N)(=O)=O` [Example 50, N-(3-cyano-5-((3,3-difluorocyclobutyl)methyl)-4,5,6,7-tetrahydrothieno[3,2-c]pyridin-2-yl)-2-(3-methoxy-4-sulfamoylphenyl)acetamide] the EC50 [1] was 100 to 1000 nM, the EC50 [2] was 100 to 1000 nM and the EC50 [3] was 100 to 1000 nM. For the same compound, the EC50 [4] was 100 to 1000 nM.
For `COc1cc(CC(=O)Nc2sc3c(c2C#N)CN(CC2CCCCC2)C(C)(C)C3)ccc1S(N)(=O)=O` [Example 82, N-(3-cyano-5-(cyclohexylmethyl)-6,6-dimethyl-4,5,6,7-tetrahydrothieno[3,2-c]pyridin-2-yl)-2-(3-methoxy-4-sulfamoylphenyl)acetamide], the EC50 [1] was < 100 nM, the EC50 [2] was < 100 nM and the EC50 [3] was < 100 nM. For the same compound, the EC50 [4] was < 100 nM.
`Cc1cccc(CN2CCc3c(sc(NC(=O)Cc4ccc(S(N)(=O)=O)cc4)c3C#N)C2)c1F` [Example 115, N-(3-cyano-6-(2-fluoro-3-methylbenzyl)-4,5,6,7-tetrahydrothieno[2,3-c]pyridin-2-yl)-2-(4-sulfamoylphenyl)acetamide] was tested, and the EC50 [1] was 100 to 1000 nM, the EC50 [2] was < 100 nM and the EC50 [3] was < 100 nM. The EC50 [4] was < 100 nM.
For `COc1cc(CC(=O)Nc2sc3c(c2C#N)CN(Cc2cccc(F)c2)CC3)ccc1S(C)(=O)=O` [Example 30, N-(3-cyano-5-(3-fluorobenzyl)-4,5,6,7-tetrahydrothieno[3,2-c]pyridin-2-yl)-2-(3-methoxy-4-(methylsulfonyl)phenyl)acetamide], the EC50 [1] was 100 to 1000 nM, the EC50 [2] was < 100 nM and the EC50 [3] was < 100 nM. For the same compound, the EC50 [4] was < 100 nM.
In the case of `N#Cc1c(NC(=O)Cc2ccc(S(N)(=O)=O)cc2)sc2c1CN(CC1CC(F)(F)C1)CC2` [Example 2, N-(3-cyano-5-((3,3-difluorocyclobutyl)methyl)-4,5,6,7-tetrahydrothieno[3,2-c]pyridin-2-yl)-2-(4-sulfamoylphenyl)acetamide], the EC50 [1] is reported as > 1000 nM, the EC50 [2] is reported as 100 to 1000 nM and the EC50 [3] is reported as 100 to 1000 nM. The EC50 [4] was 100 to 1000 nM.
Work on `CS(=O)(=O)Nc1ccc(CC(=O)Nc2sc3c(c2C#N)CN(CC2CCCCC2)CC3)cc1` [Example 13, N-(3-cyano-5-(cyclohexylmethyl)-4,5,6,7-tetrahydrothieno[3,2-c]pyridin-2-yl)-2-(4-(methylsulfonamido)phenyl)acetamide] yielded an EC50 [1] of 100 to 1000 nM, an EC50 [2] of 100 to 1000 nM and an EC50 [3] of 100 to 1000 nM. It also gave an EC50 [4] of 100 to 1000 nM.
`N#Cc1c(NC(=O)Cc2ccc3c(c2)S(=O)(=O)NC3)sc2c1CN(Cc1cccc(F)c1)CC2` [Example 25, N-(3-cyano-5-(3-fluorobenzyl)-4,5,6,7-tetrahydrothieno[3,2-c]pyridin-2-yl)-2-(1,1-dioxido-2,3-dihydrobenzo[d]isothiazol-6-yl)acetamide] was tested, and the EC50 [1] was 100 to 1000 nM, the EC50 [2] was < 100 nM and the EC50 [3] was < 100 nM. The EC50 [4] was < 100 nM.
For `COc1cc(CC(=O)Nc2sc3c(c2C#N)C(C)(C)N(Cc2ccccc2)CC3)ccc1S(N)(=O)=O` [Example 49, N-(5-benzyl-3-cyano-4,4-dimethyl-4,5,6,7-tetrahydrothieno[3,2-c]pyridin-2-yl)-2-(3-methoxy-4-sulfamoylphenyl)acetamide], the EC50 [1] was > 1000 nM, the EC50 [2] was 100 to 1000 nM and the EC50 [3] was > 1000 nM. For the same compound, the EC50 [4] was 100 to 1000 nM.
In the case of `CC1Cc2sc(NC(=O)Cc3ccc(S(N)(=O)=O)cc3)c(C#N)c2CN1C(C)c1ccccc1` (single isomer, unassigned) [Example 54, N-(3-cyano-6-methyl-5-(1-phenylethyl)-4,5,6,7-tetrahydrothieno[3,2-c]pyridin-2-yl)-2-(4-sulfamoylphenyl)acetamide], the EC50 [1] is reported as 100 to 1000 nM, the EC50 [2] is reported as < 100 nM and the EC50 [3] is reported as < 100 nM. The EC50 [4] was < 100 nM.
`CC1(C)CS(=O)(=O)c2ccc(CC(=O)Nc3sc4c(c3C#N)CN(CC3CCCCC3)C(C)(C)C4)cc21` [Example 72, N-(3-cyano-5-(cyclohexylmethyl)-6,6-dimethyl-4,5,6,7-tetrahydrothieno[3,2-c]pyridin-2-yl)-2-(3,3-dimethyl-1,1-dioxido-2,3-dihydrobenzo[b]thiophen-5-yl)acetamide] was tested, and the EC50 [1] was < 100 nM, the EC50 [2] was < 100 nM and the EC50 [3] was < 100 nM. The EC50 [4] was < 100 nM.
In the case of `CNS(=O)(=O)c1ccc(CC(=O)Nc2sc3c(c2C#N)CN(Cc2cccc(F)c2)CC3)cc1` [Example 29, N-(3-cyano-5-(3-fluorobenzyl)-4,5,6,7-tetrahydrothieno[3,2-c]pyridin-2-yl)-2-(4-(N-methylsulfamoyl)phenyl)acetamide], the EC50 [1] is reported as 100 to 1000 nM, the EC50 [2] is reported as < 100 nM and the EC50 [3] is reported as < 100 nM. For the same compound, the EC50 [4] was < 100 nM.
In the case of `CCC1(CC)Cc2sc(NC(=O)Cc3ccc(S(N)(=O)=O)cc3)c(C#N)c2CN1CC1CC(F)(F)C1` [Example 79, N-(3-cyano-5-((3,3-difluorocyclobutyl)methyl)-6,6-diethyl-4,5,6,7-tetrahydrothieno[3,2-c]pyridin-2-yl)-2-(4-sulfamoylphenyl)acetamide], the EC50 [1] is reported as < 100 nM, the EC50 [2] is reported as < 100 nM and the EC50 [3] is reported as < 100 nM. For the same compound, the EC50 [4] was < 100 nM.
`CC1Cc2sc(NC(=O)Cc3ccc(S(=O)(=O)NCC4CCCC4)cc3)c(C#N)c2CN1CC1CCCC1` (centres unmarked) [Example 61, N-(3-cyano-5-(cyclopentylmethyl)-6-methyl-4,5,6,7-tetrahydrothieno[3,2-c]pyridin-2-yl)-2-(4-(N-(cyclopentylmethyl)sulfamoyl)phenyl)acetamide] was tested, and the EC50 [1] was > 1000 nM, the EC50 [2] was > 1000 nM and the EC50 [3] was > 1000 nM. The EC50 [4] was 100 to 1000 nM.
`N#Cc1c(NC(=O)Cc2ccc(S(=O)(=O)C(F)F)cc2)sc2c1CN(Cc1cccc(F)c1)CC2` [Example 45, N-(3-cyano-5-(3-fluorobenzyl)-4,5,6,7-tetrahydrothieno[3,2-c]pyridin-2-yl)-2-(4-((difluoromethyl)sulfonyl)phenyl)acetamide] was tested, and the EC50 [1] was > 1000 nM, the EC50 [2] was 100 to 1000 nM and the EC50 [3] was 100 to 1000 nM. For the same compound, the EC50 [4] was > 1000 nM.
With `COCCOc1cccc(CC(=O)Nc2sc3c(c2C#N)CN(Cc2cccc(F)c2)CC3)c1` [Example 31, N-(3-cyano-5-(3-fluorobenzyl)-4,5,6,7-tetrahydrothieno[3,2-c]pyridin-2-yl)-2-(3-(2-methoxyethoxy)phenyl)acetamide] the EC50 [1] was > 1000 nM, the EC50 [2] was 100 to 1000 nM and the EC50 [3] was 100 to 1000 nM. It also gave an EC50 [4] of 100 to 1000 nM.
`COc1cccc(CC(=O)Nc2sc3c(c2C#N)CN(Cc2cccc(F)c2)CC3)c1F` [Example 40, N-(3-cyano-5-(3-fluorobenzyl)-4,5,6,7-tetrahydrothieno[3,2-c]pyridin-2-yl)-2-(2-fluoro-3-methoxyphenyl)acetamide] was tested, and the EC50 [1] was > 1000 nM, the EC50 [2] was 100 to 1000 nM and the EC50 [3] was 100 to 1000 nM. It also gave an EC50 [4] of 100 to 1000 nM.
With `CC1Cc2sc(NC(=O)Cc3ccc(S(C)(=O)=O)cc3)c(C#N)c2CN1Cc1cccc(F)c1` (centres unmarked) [Example 69, N-(3-cyano-5-(3-fluorobenzyl)-6-methyl-4,5,6,7-tetrahydrothieno[3,2-c]pyridin-2-yl)-2-(4-(methylsulfonyl)phenyl)acetamide] the EC50 [1] was 100 to 1000 nM, the EC50 [2] was < 100 nM and the EC50 [3] was < 100 nM. The EC50 [4] was < 100 nM.
For `Cc1ccccc1CN1CCc2c(sc(NC(=O)Cc3ccc(S(C)(=O)=O)cc3)c2C#N)C1` [Example 103, N-(3-cyano-6-(2-methylbenzyl)-4,5,6,7-tetrahydrothieno[2,3-c]pyridin-2-yl)-2-(4-(methylsulfonyl)phenyl)acetamide], the EC50 [1] was 100 to 1000 nM, the EC50 [2] was 100 to 1000 nM and the EC50 [3] was 100 to 1000 nM. It also gave an EC50 [4] of 100 to 1000 nM.
In the case of `CC(c1ccccc1)N1CCc2c(sc(NC(=O)Cc3ccc(S(N)(=O)=O)cc3)c2C#N)C1` (centres unmarked) [Example 90, N-(3-cyano-6-(1-phenylethyl)-4,5,6,7-tetrahydrothieno[2,3-c]pyridin-2-yl)-2-(4-sulfamoylphenyl)-acetamide hydrochloride], the EC50 [1] is reported as > 1000 nM, the EC50 [2] is reported as 100 to 1000 nM and the EC50 [3] is reported as 100 to 1000 nM. For the same compound, the EC50 [4] was 100 to 1000 nM.
